Read-outs that look alike come from different tables or passages of the source.
Legend:
[1] = cited from earlier work
[2] = pH upon addition of test substance to 0.1 M HCl solution (pH 1.2), simulated gastric fluid, pH meter; assay type: physicochemical
Description: Test substances were dissolved in various volumes of 0.1 M HCl solution (pH 1.2) at concentrations of 1, 2, 4, 10, 20, 50, 100 and 150 mg/ml. The solution pH was determined using an MP-103 pH-meter (MRC, Israel) equipped with ELC-10-00 electrode (MRC, Israel) or with a thin electrode HI1083 (HANNA instruments Inc.), shortly after dissolution and up to 26 hours later in order to ensure that the pH remained stable. The highest pH value obtained during the experimental time period was recorded in order to compare the acid-neutralizing capacity of each substance.
SNAC and the basic polymers sodium alginate, sodium carboxymethylcellulose in non-crosslinked (Na-CMC) and crosslinked (croscarmellose sodium, CCS) forms, and sodium starch glycolate (SSG) were dissolved in various volumes of 0.1 M HCl solution (pH 1.2) at concentrations of 1, 2, 4, 10, 20, 50, 100 and 150 mg/ml, and the solution pH was determined using an MP-103 pH-meter (MRC, Israel) equipped with ELC-10-00 electrode (MRC, Israel), as described in the Materials and Methods section hereinabove.
In order to obtain a beneficial rise in pH with a reduced loss of the active form of the absorption enhancer, the effect of various concentrations of different polymers containing carboxylate groups (sodium alginate, sodium starch glycolate, sodium carboxymethylcellulose, and croscarmellose sodium) on pH upon addition to a 0.1 M HCl solution (pH 1.2) was also evaluated. FIG. 2A presents pH values determined using an MP-103 pH-meter (MRC, Israel) equipped with ELC-10-00 electrode (MRC, Israel) and FIG. 2B presents pH values determined using an MP-103 pH-meter (MRC, Israel) equipped with a thin electrode HI1083 (HANNA instruments Inc.).

[3] = Oral teduglutide/SNAC/SSG mini-tablets in rats, plasma teduglutide by ELISA; assay type: in vivo, Sprague-Dawley rats; settings: oral mini-tablets: 0.7 mg teduglutide (2.34 mg/Kg), 15 mg SNAC, 5.33 mg SSG, n=7
Description: In an exemplary in vivo rat model, the effect of SNAC, as an exemplary absorption enhancer, and SSG, as an exemplary alkaline polymer, on the oral bioavailability of teduglutide was tested.
A formulation was prepared with 0.7 mg teduglutide (2.34 mg/Kg), 15 mg SNAC, 0.2 mg stearate and 5.33 mg SSG. All substances were in a dry powder form and mixed geometrically. Afterwards, mini-tablets were prepared from the mixes using a 2 mm punch and die set at 1 ton/cm^2.
The study was conducted in 7 male Sprague-Dawley (SD) rats weighing about 299 grams (290-320 grams). Animals were deprived of food 12-15 hours prior to administration. Water supply was removed one hour before administration and returned one hour post-administration. The mini-tablets were administered by a flexible intragastric gavage with a tip adapted for solid dosage forms administration, without the aid of water. Blood samples were thereafter collected at pre-determined time points, the plasma was separated, and the plasma level of teduglutide was quantified by an ELISA kit for the detection of endogenous GLP-2 in plasma (Abcam, Cat. No. ab222863) according to manufacturer's method Version 7, upon required modifications.

[4] = teduglutide without the formulation; cited from earlier work
[5] = compared with endogenous GLP-2; cited from earlier work

GLP-2: Human glucagon-like peptide-2, a 33-amino acid polypeptide produced by intestinal endocrine L cells
half-life in humans ([1]; human, in vivo): about 7 minutes

O=C(O)CCCCCCCNC(=O)c1ccccc1O [SNAC, sodium 8-N-(2-hydroxybenzoyl)aminocaprylate]
pH 5 minutes after dissolution ([2]; 10 mg/ml SNAC added to HCl solution (pH 1.2)): about 1.5 | pH 5 minutes after dissolution ([2]; 20 mg/ml SNAC added to HCl solution (pH 1.2)): 6.5 | pH 5 minutes after dissolution ([2]; 100 mg/ml SNAC added to HCl solution (pH 1.2)): about 7.5

CC[C@H](C)[C@H](NC(=O)[C@H](Cc1ccccc1)NC(=O)[C@H](CC(=O)O)NC(=O)[C@H](CCCNC(=N)N)NC(=O)[C@H](C)NC(=O)[C@H](C)NC(=O)[C@H](CC(C)C)NC(=O)[C@H](CC(N)=O)NC(=O)[C@H](CC(=O)O)NC(=O)[C@H](CC(C)C)NC(=O)[C@@H](NC(=O)[C@@H](NC(=O)[C@H](CC(N)=O)NC(=O)[C@H](CCSC)NC(=O)[C@H](CCC(=O)O)NC(=O)[C@H](CC(=O)O)NC(=O)[C@H](CO)NC(=O)[C@H](Cc1ccccc1)NC(=O)[C@H](CO)NC(=O)CNC(=O)[C@H](CC(=O)O)NC(=O)CNC(=O)[C@@H](N)Cc1c[nH]cn1)[C@@H](C)O)[C@@H](C)CC)C(=O)N[C@@H](CC(N)=O)C(=O)N[C@@H](Cc1c[nH]c2ccccc12)C(=O)N[C@@H](CC(C)C)C(=O)N[C@H](C(=O)N[C@@H](CCC(N)=O)C(=O)N[C@H](C(=O)N[C@@H](CCCCN)C(=O)N[C@H](C(=O)N[C@H](C(=O)N[C@@H](CC(=O)O)C(=O)O)[C@@H](C)O)[C@@H](C)CC)[C@@H](C)O)[C@@H](C)CC [teduglutide]
teduglutide plasma concentrations as a function of time [3]: enable oral delivery of teduglutide | oral (PO) bioavailability [4]: negligible | stability to metabolic degradation [5]: significantly higher stability to metabolic degradation than the endogenous glucagon like peptide 2 (GLP-2) | half-life in humans ([1]; humans): about two hours
